The text below walks through data of article PMC9264488, “Potentiation of endocannabinoids and other lipid amides prevents hyperalgesia and inflammation in a pre-clinical model of migraine” (The Journal of Headache and Pain, 2022).

Test [1] concerns the target T1, fatty acid amide hydrolase (r-FAAH) (Rattus norvegicus, UniProt P97612). Put plainly: biochemical.
Test [2] deals with T1, fatty acid amide hydrolase (r-FAAH).

Each structure is given as a SMILES string. Read-outs that look alike come from different tables or passages of the source.

T1 sequence (P97612 whole entry): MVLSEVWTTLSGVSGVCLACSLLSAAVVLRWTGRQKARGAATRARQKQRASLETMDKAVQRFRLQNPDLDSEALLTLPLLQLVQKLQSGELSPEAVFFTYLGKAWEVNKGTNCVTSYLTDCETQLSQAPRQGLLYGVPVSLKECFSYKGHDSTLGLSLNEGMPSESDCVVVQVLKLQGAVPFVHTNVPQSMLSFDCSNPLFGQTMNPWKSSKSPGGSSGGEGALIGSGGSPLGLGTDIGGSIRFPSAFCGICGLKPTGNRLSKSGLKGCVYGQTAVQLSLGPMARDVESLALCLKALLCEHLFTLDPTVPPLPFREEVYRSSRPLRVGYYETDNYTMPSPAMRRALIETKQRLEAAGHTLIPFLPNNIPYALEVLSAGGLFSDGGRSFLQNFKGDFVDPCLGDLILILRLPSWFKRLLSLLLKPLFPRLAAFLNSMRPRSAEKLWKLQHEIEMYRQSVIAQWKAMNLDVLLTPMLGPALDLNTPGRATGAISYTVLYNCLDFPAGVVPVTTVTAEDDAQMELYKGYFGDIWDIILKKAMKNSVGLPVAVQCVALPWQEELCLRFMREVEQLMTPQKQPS

As to `NC(=O)c1cccc(-c2cc(OC(=O)NC3CCCCC3)ccc2OC(F)F)c1` [ARN14280, [3-(3-carbamoylphenyl)-4-(difluoromethoxy)phenyl] N-cyclohexylcarbamate], half-maximal inhibition in test [1] (IC50) required 1.5 ± 0.3 nM.

Turning to `CNC(=O)c1cccc(-c2cc(OC(=O)NC3CCCCC3)ccc2F)c1` [ARN14633, [4-fluoro-3-[3-(methylcarbamoyl)phenyl]phenyl] N-cyclohexylcarbamate], the IC50 (in general, the point on the concentration scale where inhibition reaches its midpoint) in test [2] amounted to 1.4 ± 0.3 nM.
